molecular target: T1, hQ23 (HEK-293 cell line stably transfected with one of the members of the KCNQ family) (Homo sapiens, UniProt O43525+O43526); experiment: Thallium flux assay for KCNQ channel blockers (FLIPR, BTC dye); type: cell-based; conditions: Table 2; thallium flux, HEK-293
T1 construct: expressed in transfected cells; host or cells: HEK-293, stably transfected
Summary of the method: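 FLIPR thallium flux readout (BTC dye, 2 μM AM ester) in stably transfected KCNQ HEK-293 cells, chloride-free HEPES buffer pH 7.3, Tl2SO4 stimulus. IC50s were fitted with a single-site logistic equation across 10 points at 1:3 dilutions, defined as 50% of positive-control block; minimal active concentration meant signal ≥4 SD over DMSO controls.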

T1 sequence (O43526 whole entry): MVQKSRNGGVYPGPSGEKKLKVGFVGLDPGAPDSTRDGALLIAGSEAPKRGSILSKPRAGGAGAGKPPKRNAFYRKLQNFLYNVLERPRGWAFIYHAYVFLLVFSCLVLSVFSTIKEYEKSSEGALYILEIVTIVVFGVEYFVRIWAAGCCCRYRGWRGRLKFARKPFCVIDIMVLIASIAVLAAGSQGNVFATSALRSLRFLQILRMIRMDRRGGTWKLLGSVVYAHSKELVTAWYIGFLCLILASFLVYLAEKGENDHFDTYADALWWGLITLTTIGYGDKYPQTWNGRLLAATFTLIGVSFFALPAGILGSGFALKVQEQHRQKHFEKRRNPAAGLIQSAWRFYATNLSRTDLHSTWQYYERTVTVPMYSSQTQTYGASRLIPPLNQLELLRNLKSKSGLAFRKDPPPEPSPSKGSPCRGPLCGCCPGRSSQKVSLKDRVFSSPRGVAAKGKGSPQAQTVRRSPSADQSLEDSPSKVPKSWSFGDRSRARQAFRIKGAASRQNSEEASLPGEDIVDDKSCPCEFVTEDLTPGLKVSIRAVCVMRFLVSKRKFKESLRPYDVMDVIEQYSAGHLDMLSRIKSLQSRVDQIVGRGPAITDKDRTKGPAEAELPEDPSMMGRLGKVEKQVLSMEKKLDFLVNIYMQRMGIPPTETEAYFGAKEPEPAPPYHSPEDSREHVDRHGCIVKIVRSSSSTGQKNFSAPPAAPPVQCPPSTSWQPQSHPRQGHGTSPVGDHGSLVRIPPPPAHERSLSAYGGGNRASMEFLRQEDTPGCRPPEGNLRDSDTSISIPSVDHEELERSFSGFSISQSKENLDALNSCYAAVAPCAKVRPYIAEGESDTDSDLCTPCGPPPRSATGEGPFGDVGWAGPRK
T1 sequence (O43525 whole entry): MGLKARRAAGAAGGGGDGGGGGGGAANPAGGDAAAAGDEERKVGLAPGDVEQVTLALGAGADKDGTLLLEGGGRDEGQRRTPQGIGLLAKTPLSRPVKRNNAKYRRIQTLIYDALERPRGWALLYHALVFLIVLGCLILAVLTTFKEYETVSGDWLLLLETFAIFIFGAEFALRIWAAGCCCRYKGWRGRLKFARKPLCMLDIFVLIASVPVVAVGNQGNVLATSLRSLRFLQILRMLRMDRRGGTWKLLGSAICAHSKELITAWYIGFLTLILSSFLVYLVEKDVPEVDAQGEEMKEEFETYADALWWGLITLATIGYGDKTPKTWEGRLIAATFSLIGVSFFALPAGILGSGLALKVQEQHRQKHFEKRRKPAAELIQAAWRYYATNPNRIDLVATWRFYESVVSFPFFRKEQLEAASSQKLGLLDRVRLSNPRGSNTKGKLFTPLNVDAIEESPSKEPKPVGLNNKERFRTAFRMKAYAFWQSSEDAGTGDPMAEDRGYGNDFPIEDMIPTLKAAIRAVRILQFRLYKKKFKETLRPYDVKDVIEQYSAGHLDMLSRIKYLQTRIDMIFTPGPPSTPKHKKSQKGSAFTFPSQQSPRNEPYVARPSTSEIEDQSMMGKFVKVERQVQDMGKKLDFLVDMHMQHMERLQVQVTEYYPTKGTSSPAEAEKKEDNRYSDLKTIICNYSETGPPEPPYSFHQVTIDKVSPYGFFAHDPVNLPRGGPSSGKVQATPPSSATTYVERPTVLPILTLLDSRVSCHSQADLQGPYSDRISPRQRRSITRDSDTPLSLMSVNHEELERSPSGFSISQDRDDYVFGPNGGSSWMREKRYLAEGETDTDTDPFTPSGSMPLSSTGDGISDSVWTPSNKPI

Point of comparison: `CC1CCC(Nc2ncc(C(=O)NC(C)c3ccc(F)cc3)c(C3(c4ccccc4)CC3)n2)CC1` (centres unmarked) [Example 49, 5-pyrimidinecarboxamide, N-[1-(4-fluorophenyl)ethyl]-2-[(4-methylcyclohexyl)amino]-4-(1-phenylcyclopropyl)-], EC50 575 nM. Against it:
- CC1CCCN(c2ncc(C(=O)NCc3cc(F)cc(C(F)(F)F)c3)c(C3(c4ccccc4)CC3)n2)C1 (centres unmarked) [Example 47, 5-pyrimidinecarboxamide, N-[[3-fluoro-5-(trifluoromethyl)phenyl]methyl]-2-(3-methyl-1-piperidinyl)-4-(1-phenylcyclopropyl)-] — 14-fold lower, 41 nM
- CC1CCC(Nc2ncc(C(=O)NCc3ccc(Cl)cc3Cl)c(C3(c4ccccc4)CC3)n2)CC1 (centres unmarked) [Example 39, 5-pyrimidinecarboxamide, N-[(2,4-dichlorophenyl)methyl]-2-[(4-methylcyclohexyl)amino]-4-(1-phenylcyclopropyl)-] — within 1.5-fold, 551 nM

same assay, conditions: Table 3; thallium flux, HEK-293

`CN(C)CCNc1ncc(C(=O)N(C)CCc2ccccc2)c(C2(c3ccc(Cl)cc3)CCC2)n1` [Example 55, 5-pyrimidinecarboxamide, 4-[1-(4-chlorophenyl)cyclobutyl]-2-[[2-(dimethylamino)ethyl]amino]-N-methyl-N-(2-phenylethyl)-] was tested, and the EC50 was 321 nM.

same assay, conditions: hQ23 cells, thallium flux

Point of comparison: `CCC(C)Nc1ncc(C(=O)NCc2ccc(F)cc2F)c(C2(c3ccccc3)CCCC2)n1` (centres unmarked) [Example 120, 5-pyrimidinecarboxamide, N-[(2,4-difluorophenyl)methyl]-2-[(1-methylpropyl)amino]-4-(1-phenylcyclopentyl)-], EC50 62 nM. Against it:
- CCN(CC)C(=O)c1cnc(NC2CCC(C)CC2)nc1C1(c2ccccc2)CCCC1 (centres unmarked) [Example 72, 5-pyrimidinecarboxamide,N,N-diethyl-2-[(4-methylcyclohexyl)amino]-4-(1-phenylcyclopentyl)-] — 9.3-fold higher, 576 nM
- CC1CCC(Nc2ncc(C(=O)NCc3cc(F)cc(C(F)(F)F)c3)c(C3(c4ccc(Cl)cc4)CCCC3)n2)CC1 (centres unmarked) [Example 190, 5-pyrimidinecarboxamide, 4-[1-(4-chlorophenyl)cyclopentyl]-N-[[3-fluoro-5-(trifluoromethyl)phenyl]methyl]-2-[(4-methylcyclohexyl)amino]-] — 2.6-fold higher, 163 nM
- CCN(C(=O)c1cnc(N2CCC(C)CC2)nc1C1(c2ccccc2)CCCC1)C1CCCCC1 [Example 76, 5-pyrimidinecarboxamide, N-cyclohexyl-N-ethyl-2-(4-methyl-1-piperidinyl)-4-(1-phenylcyclopentyl)-] — 15-fold higher, 900 nM
- CN(C)CCNc1ncc(C(=O)NCc2ccc(Cl)cc2Cl)c(C2(c3ccc(Cl)cc3)CCCC2)n1 [Example 184, 5-pyrimidinecarboxamide, 4-[1-(4-chlorophenyl)cyclopentyl]-N-[(2,4-dichlorophenyl)methyl]-2-[[2-(dimethylamino)ethyl]amino]-] — 11-fold higher, 709 nM
- O=C(NCc1cc(F)cc(C(F)(F)F)c1)c1cnc(NC2CCCC2)nc1C1(c2ccccc2)CCCC1 [Example 130, 5-pyrimidinecarboxamide, 2-(cyclopentylamino)-N-[[3-fluoro-5-(trifluoromethyl)phenyl]methyl]-4-(1-phenylcyclopentyl)-] — 14-fold higher, 875 nM
- CC1CCN(c2ncc(C(=O)NCc3ccc(F)cc3F)c(C3(c4ccc(Cl)cc4)CCCC3)n2)CC1 [Example 188, 5-pyrimidinecarboxamide, 4-[1-(4-chlorophenyl)cyclopentyl]-N-[(2,4-difluorophenyl)methyl]-2-(4-methyl-1-piperidinyl)-] — 3.9-fold lower, 16 nM
- CC1CCCN(c2ncc(C(=O)NC(C)c3cccc4ccccc34)c(C3(c4ccccc4)CCCC3)n2)C1 (centres unmarked) [Example 97, 5-pyrimidinecarboxamide, 2-(3-methyl-1-piperidinyl)-N-[1-(1-naphthalenyl)ethyl]-4-(1-phenylcyclopentyl)-] — 3.3-fold lower, 19 nM
- CC1CCC(Nc2ncc(C(=O)N3CCc4ccccc4C3)c(C3(c4ccccc4)CCCC3)n2)CC1 (centres unmarked) [Example 73, isoquinoline, 1,2,3,4-tetrahydro-2-[[2-[(4-methylcyclohexyl)amino]-4-(1-phenylcyclopentyl)-5-pyrimidinyl]carbonyl]-] — 13-fold higher, 798 nM
- CCC(C)Nc1ncc(C(=O)NC(C)c2cccc3ccccc23)c(C2(c3ccccc3)CCCC2)n1 (centres unmarked) [Example 99, 5-pyrimidinecarboxamide, 2-[(1-methylpropyl)amino]-N-[1-(1-naphthalenyl)ethyl]-4-(1-phenylcyclopentyl)-] — 4.7-fold higher, 293 nM

same assay, conditions: hQ23 cells, thallium flux assay

Point of comparison: `O=C(NCc1cccc2ccccc12)c1cnc(N2CCCC2)nc1C1(c2ccc(F)cc2)CCCC1` [Example 249, 5-pyrimidinecarboxamide, 4-[1-(4-fluorophenyl)cyclopentyl]-N-(1-naphthalenylmethyl)-2-(1-pyrrolidinyl)-], EC50 278 nM. Against it:
- CCC(C)Nc1ncc(C(=O)NCc2cc(F)cc(C(F)(F)F)c2)c(C2(c3ccc(F)cc3)CCCC2)n1 (centres unmarked) [Example 279, 5-pyrimidinecarboxamide, 4-[1-(4-fluorophenyl)cyclopentyl]-N-[[3-fluoro-5-(trifluoromethyl)phenyl]methyl]-2-[(1-methylpropyl)amino]-] — 5.1-fold lower, 55 nM
- CCC(C)Nc1ncc(C(=O)NCc2ccc(Cl)cc2Cl)c(C2(c3ccc(F)cc3)CCCC2)n1 (centres unmarked) [Example 265, 5-pyrimidinecarboxamide, N-[(2,4-dichlorophenyl)methyl]-4-[1-(4-fluorophenyl)cyclopentyl]-2-[(1-methylpropyl)amino]-] — 2-fold lower, 138 nM
- CC1CCC(Nc2ncc(C(=O)NCc3ccc(F)cc3F)c(C3(c4ccc(F)cc4)CCCC3)n2)CC1 (centres unmarked) [Example 267, 5-pyrimidinecarboxamide, N-[(2,4-difluorophenyl)methyl]-4-[1-(4-fluorophenyl)cyclopentyl]-2-[(4-methylcyclohexyl)amino]-] — 5.8-fold lower, 48 nM
- CC(NC(=O)c1cnc(N2CCN(C)CC2)nc1C1(c2ccc(F)cc2)CCCC1)c1cccc2ccccc12 (centres unmarked) [Example 243, 5-pyrimidinecarboxamide, 4-[1-(4-fluorophenyl)cyclopentyl]-2-(4-methyl-1-piperazinyl)-N-[1-(1-naphthalenyl)ethyl]-] — 3.1-fold higher, 852 nM
- CC1CCN(c2ncc(C(=O)NCc3cccc4ccccc34)c(C3(c4ccc(F)cc4)CCCC3)n2)CC1 [Example 251, 5-pyrimidinecarboxamide, 4-[1-(4-fluorophenyl)cyclopentyl]-2-(4-methyl-1-piperidinyl)-N-(1-naphthalenylmethyl)-] — 19-fold lower, 15 nM
- CC1CCCN(c2ncc(C(=O)NCc3ccc(F)cc3F)c(C3(c4ccc(F)cc4)CCCC3)n2)C1 (centres unmarked) [Example 269, 5-pyrimidinecarboxamide, N-[(2,4-difluorophenyl)methyl]-4-[1-(4-fluorophenyl)cyclopentyl]-2-(3-methyl-1-piperidinyl)-] — 5-fold lower, 56 nM
- O=C(NCc1cc(F)cc(C(F)(F)F)c1)c1cnc(NC2CCCC2)nc1C1(c2ccc(F)cc2)CCCC1 [Example 280, 5-pyrimidinecarboxamide, 2-(cyclopentylamino)-4-[1-(4-fluorophenyl)cyclopentyl]-N-[[3-fluoro-5-(trifluoromethyl)phenyl]methyl]-] — 4.6-fold lower, 60 nM
- O=C(NCc1ccc(Cl)cc1Cl)c1cnc(NC2CCCC2)nc1C1(c2ccc(F)cc2)CCCC1 [Example 266, 5-pyrimidinecarboxamide, 2-(cyclopentylamino)-N-[(2,4-dichlorophenyl)methyl]-4-[1-(4-fluorophenyl)cyclopentyl]-] — 10-fold lower, 27 nM

— patent US7091202B2, “4-arylspirocycloalkyl-2-aminopyrimidine carboxamide KCNQ potassium channel modulators” (Bristol-Myers Squibb Company, priority 2004, dated 2006)
